# Data as given in patent publication US20230287027A1, “ADJUVANT WITH TLR4 AGONIST ACTIVITY” (Sumitomo Pharma Co., Ltd, priority 2020, published 2023).
# Assays:
# mouse TLR4 = target: T1, mouse TLR4 (Mus musculus, UniProt Q9JHF9+Q9QUK6); assay: Mouse TLR4 reporter gene assay (Test 2); type: cell-based; settings: HEK-Blue mTLR4 cell line, SEAP reporter, 37° C. 16-20 hours, 0.1% DMSO; concentration giving half of maximal SEAP level induced with LPS
# T1 construct: host or cells: HEK-Blue mTLR4 cell line
# T1 sequence (Q9QUK6 26-835): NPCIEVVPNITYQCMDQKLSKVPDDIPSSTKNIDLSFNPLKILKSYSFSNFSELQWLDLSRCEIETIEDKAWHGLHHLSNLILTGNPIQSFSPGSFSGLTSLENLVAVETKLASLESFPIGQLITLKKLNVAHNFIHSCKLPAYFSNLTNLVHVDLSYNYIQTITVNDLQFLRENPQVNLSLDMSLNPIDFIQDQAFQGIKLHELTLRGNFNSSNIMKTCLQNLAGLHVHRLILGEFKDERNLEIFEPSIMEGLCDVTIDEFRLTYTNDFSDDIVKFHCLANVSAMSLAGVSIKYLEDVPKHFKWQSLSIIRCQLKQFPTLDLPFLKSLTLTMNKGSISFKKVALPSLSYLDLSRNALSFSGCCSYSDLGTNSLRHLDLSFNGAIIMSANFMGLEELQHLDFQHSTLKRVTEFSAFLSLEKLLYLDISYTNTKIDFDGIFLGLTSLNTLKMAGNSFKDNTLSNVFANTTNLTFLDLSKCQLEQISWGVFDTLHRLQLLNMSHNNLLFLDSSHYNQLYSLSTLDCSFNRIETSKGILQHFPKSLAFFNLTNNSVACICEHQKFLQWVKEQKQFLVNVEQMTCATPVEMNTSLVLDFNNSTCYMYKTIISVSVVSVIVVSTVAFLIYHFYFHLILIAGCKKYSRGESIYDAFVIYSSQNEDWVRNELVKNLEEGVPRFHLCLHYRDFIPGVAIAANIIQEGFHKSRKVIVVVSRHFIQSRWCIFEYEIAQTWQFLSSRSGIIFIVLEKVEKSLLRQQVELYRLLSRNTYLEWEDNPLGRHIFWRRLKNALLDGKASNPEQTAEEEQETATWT
# T1 sequence (Q9JHF9 19-160): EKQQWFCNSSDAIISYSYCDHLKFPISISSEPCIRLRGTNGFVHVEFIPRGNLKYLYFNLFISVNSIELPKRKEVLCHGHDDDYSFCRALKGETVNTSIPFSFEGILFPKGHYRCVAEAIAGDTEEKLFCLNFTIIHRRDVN
# From the text: Mouse TLR4 Reporter Gene Assay
# HEK-Blue™ mTLR4 cell line (Invivogen) is a stably co-transfected cell line which expresses mouse TLR4, MD2, CD14 and secretory SEAP reporter gene under the transcriptional regulation of an NF-κB response element. The TLR4 expression of the cell line has been already tested by RT-PCR, flow cytometry. Transfectants with stable expression were selected using the antibiotic HEK-Blue™ Selection. TLR signaling leads to the translocation of NF-κB and the activation of the promoter results in expression of the SEAP gene. TLR4-specific activation was assessed by determining the level of SEAP produced following incubation of the cells at 37° C. for 16-20 hours with each compound prepared in Examples and Reference examples in the presence of 0.1% (v/v) DMSO. The mouse TLR4 activity for the present compound was assessed by mouse TLR4 reporter gene assay, and the concentration of the compound concentration which produced half of the maximal level of SEAP induced with LPS was determined as EC50.
# spleen cell of the mouse = assay: Test 4: T cell populations in spleen cells of immunized mice by flow cytometry; type: in vivo; settings: intramuscular with OVA, liposome formulation, compared with the negative control group
# Protocol: The equal mixture prepared in Test 3 of ovalbumin (OVA) (2 mg/mL) and the formulation prepared in Example 6, Example 7, or Reference example 16 (containing 0.2 or 2 mg/mL the compound of Example 1, Example 2, or Reference example 9) was administered to a mouse (100 μL/mouse). The spleen cell of the mouse was prepared, OVA and Brefeldin A (eBioscience) were added the cell, and the cell was cultured overnight. The collected cell was stained with APC-labeled antimouse CD3e antibody (Invitrogen), PerCP-labeled antimouse CD4 antibody (BioLegend), and Fixable Viability Dye eFluor™ 520 (invitorgen), and fixed with Fixation/Permeabilization buffer (Invitrogen). The cell was treated with Permeabilization buffer (Invitrogen), and then stained with antibody cocktail BV421-labeled anti-IFN-γ antibody (BioLegend), PE-Cy7-labeled anti-IL-2 antibody (eBioscience), and PE-labeled TNF-α (BioLegend). The data were taken and analyzed with FACS Cant II (BD Biosciences) and FLOWJO software (TreeStar).
# Separately, the spleen cell was stained with V450-labled antimouse CD3e antibody (invitrogen), Alexa Fluor™ 647-labeled antimouse CD8 antibody (MBL), PE-labeled H-2Kb OVA Tetramer-SIINFEKL (MBL), and Fixable Viability dye eFluor 520 (invitrogen). The data were taken and analyzed with FACS Cant II (BD Biosciences) and FLOWJO software (TreeStar).
# Further separately, the spleen cell was stained with V450-labeled antimouse CD3e antibody (invitrogen), Alexa Fluor™ 647-labeled antimouse CD8 antibody (MBL), PE-Cy7-labeled antimouse CD44 antibody (Invitrogen), PerCP-Cy5.5-labeled antimouse CD62L antibody (Invitrogen), and Fixable Viability dye eFluor 520 (Invitrogen). The data were taken and analyzed with FACS Cant II (BD Biosciences) and FLOWJO software (TreeStar).
SMILES,EC50 (mouse TLR4) [nM],percentage of CD8-positive effector memory T-lymphocyte (spleen cell of the mouse),percentage of MHC-restricted OVA-specific CD8-positive T-lymphocyte (OVA tetramer-positive CD8T cell) (spleen cell of the mouse),percentage of OVA-specific type 1 helper T-cell (spleen cell of the mouse)
"CCCCCCCCCCC[C@H](CC(=O)NC1C(OC[C@H](NC(=O)C[C@@H](CCCCCCCCCCC)OC(=O)CCCCCCCCC)C(=O)O)OC(CO)C(O)C1OC(=O)C[C@@H](CCCCCCCCCCC)OC(=O)CCCCCCCCc1ccccc1)OC(=O)CCCCCCCCC (stereo partly drawn) [Example 2, (2S)-2-{[(3R)-3-(decanoyloxy)tetradecanoyl]amino}-3-{[3-{[(3R)-3-(decanoyloxy)tetradecanoyl]amino}-5-hydroxy-6-(hydroxymethyl)-4-({(3R)-3-[(9-phenylnonanoyl)oxy]tetradecanoyl}oxy)oxan-2-yl]oxy}propanoic acid]",14.3,significantly increased,significantly increased,significantly increased
"CCCCCCCCCCC[C@H](CC(=O)NC1C(OC[C@@H](NC(=O)C[C@@H](CCCCCCCCCCC)OC(=O)CCCCCCCCC)C(=O)O)OC(CO)C(O)C1OC(=O)C[C@@H](CCCCCCCCCCC)OC(=O)CCCCCCCCc1ccccc1)OC(=O)CCCCCCCCC (stereo partly drawn) [Example 1, (2R)-2-{[(3R)-3-(Decanoyloxy)tetradecanoyl]amino}-3-{[3-{[(3R)-3-(decanoyloxy)tetradecanoyl]amino}-5-hydroxy-6-(hydroxymethyl)-4-({(3R)-3-[(9-phenylnonanoyl)oxy]tetradecanoyl}oxy)oxan-2-yl]oxy}propanoic acid]",14.3,significantly increased,significantly increased,significantly increased
"CCCCCCCCCCC[C@H](CC(=O)NC1C(OC[C@@H](NC(=O)C[C@@H](CCCCCCCCCCC)OC(=O)CCCCCCCCC)C(=O)O)OC(CO)C(OP(=O)(O)O)C1OC(=O)C[C@@H](CCCCCCCCCCC)OC(=O)CCCCCCCCc1ccccc1)OC(=O)CCCCCCCCC (stereo partly drawn) [Reference example 9, (2R)-2-{[(3R)-3-(Decanoyloxy)tetradecanoyl]amino}-3-{[3-{[(3R)-3-(decanoyloxy)tetradecanoyl]amino}-6-(hydroxymethyl)-4-({(3R)-3-[(9-phenylnonanoyl)oxy]tetradecanoyl}oxy)-5-(phosphonooxy)oxan-2-yl]oxy}propanoic acid, reference compound]",28.4,significantly increased,significantly increased,significantly increased
